Assay results as given in US20190275040A1, “COMPOUNDS AND METHODS FOR TREATING OR PREVENTING ALZHEIMER'S DISEASE” (YALE UNIVERSITY, priority 2016, published 2019).

What was measured:
Pyk2 = Pyk2 (Homo sapiens, UniProt Q14289); assay: Luciferase-based (ADP-Glo) PYK2 kinase assay; assay type: biochemical
Experimental: Enzyme, substrate, ATP and inhibitors are diluted in Tyrosine Kinase Buffer. […] The resulting system is incubated at room temperature for 60 minutes. 5 μl of ADP-GLO™ Reagent are added. […] 10 μl of Kinase Detection Reagent are added. […] Luminescence is recorded (Integration time 0.5-1 second).

Fyn = Fyn (Homo sapiens, UniProt P06241); conditions: cited from earlier work
Chain of Fyn (P06241 whole entry, species assumed): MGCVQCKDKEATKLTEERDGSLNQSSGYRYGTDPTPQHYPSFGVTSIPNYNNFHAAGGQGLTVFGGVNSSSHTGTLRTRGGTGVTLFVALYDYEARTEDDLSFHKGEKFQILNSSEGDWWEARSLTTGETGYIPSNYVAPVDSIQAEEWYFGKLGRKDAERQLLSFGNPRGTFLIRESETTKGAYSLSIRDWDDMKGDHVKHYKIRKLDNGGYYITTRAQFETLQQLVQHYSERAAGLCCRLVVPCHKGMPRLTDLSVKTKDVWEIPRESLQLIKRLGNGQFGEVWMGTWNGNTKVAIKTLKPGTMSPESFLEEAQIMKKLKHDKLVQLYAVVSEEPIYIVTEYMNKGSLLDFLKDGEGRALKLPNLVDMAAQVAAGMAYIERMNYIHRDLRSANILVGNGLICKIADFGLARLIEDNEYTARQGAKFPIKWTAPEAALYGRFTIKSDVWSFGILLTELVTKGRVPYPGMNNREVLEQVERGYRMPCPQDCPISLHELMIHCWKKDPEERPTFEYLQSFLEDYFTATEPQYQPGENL

[1] = test system: cultured mouse hippocampal neurons; assay: GFP-Pyk2 overexpression-induced dendritic spine loss in cultured hippocampal neurons; assay type: cell-based; conditions: PF-719 1 μM; Y27632 10 μM; DIV 17-21
Excerpt: FIG. 7A: TBS-T soluble human Alzheimer's disease brain extracts were immunoblotted with anti-Pyk2 or anti-pY402 Pyk2 specific antibodies. FIG. 7B: Densitometric analysis of the immunoblots from FIG. A. p-Pyk2/Pyk2 ratio values were normalized to control mean value. Data are graphed as mean±SEM (Control, n=10; AD, n=10). *p<0.05 by Student's two-tailed t test. FIG. 7C: Representative immunofluorescent images of Pyk2 immunoreactivity from hippocampal CA1 in WT and Pyk2 null mice at 12-months age. […] FIG. 7D: Hek293T cells were co-transfected with either control vector or flag-tagged Fyn and GFP-tagged Pyk2 or K457A kinase dead mutant. Lysates were immunoblotted with anti-GFP (for GFP tagged Pyk2 and K457A mutant), anti-Fyn, and anti-pSFK antibodies. FIG. 7E: Representative GFP fluorescent images of cultured mouse hippocampal neurons. […] FIG. 7G: Quantification of dendritic spine density in the transfected neurons.
FIG. 10A: GST-RBD pull-down assay from Hek293T cell lysate from cells expressing indicated plasmids. […] FIG. 10B: Levels of RhoA-GTP (RBD pull-down) and RhoA-total (5% lysate) were quantified by densitometric measurement. […] FIG. 10D: Quantification of RhoA-GTP/total RhoA ratio by densitometric analysis. […] FIG. 10E: Representative GFP fluorescence images of the cultured hippocampal neurons. […] FIG. 10F: Quantification of dendritic spine density. […]

[2] = Brain and plasma levels after peripheral dosing (LC/MS/MS); assay type: in vivo, mouse
Experimental: (§1) In brain slices and in dissociated primary neuronal cultures, Aβo causes Fyn activation, Pyk2 activation, altered Glu-induced calcium signaling, dendritic spine loss and suppression of LTP. […] After developing LC/MS/MS methods to detect PF-719, the extent to which the Pyk2 inhibitor enters brain from peripheral dosing was determined. […] Continuous 25 mg/kg/d minipump i.p. infusion was chosen for treatment of APP/PS1 mice.

Pyk2 activation (p-Pyk2) = assay: Pyk2 activation and Aβo-induced signaling in cells; assay type: cell-based; conditions: 500 nM
Experimental: as §1

APP/PS1 transgenic mice = assay: Learning and memory (novel object recognition, Morris water maze) in APP/PS1 transgenic mice; assay type: in vivo, mouse; conditions: 12 month APP/PS1 mice, 25 mg/kg/d minipump i.p. infusion, 3-6 weeks
Experimental: FIG. 5A plots the time mice spent interacting with a familiar and a novel object. Mean±SEM, n=10-16 mice. *, p<0.05; **, p<0.01 by two-way ANOVA, Sidak's multiple comparisons test. FIG. 5B depicts spatial learning and memory as examined by the Morris-Water-Maze after 30 swim trials to a hidden platform. A 60 second probe trial was performed 24 hours after completion of training. Time spent in the quadrant where the hidden platform had been located. Mean±SEM of n=7-23 mice. *, p<0.05; ***, p<0.001. Dashed lines in FIGS. 5A-5B are chance (no memory). […]
The efficacy of PF-719 Pyk2 inhibitor to rescue AD transgenic phenotypes was tested by infusion for 6 weeks in 12 month APP/PS1 transgenic with pre-established memory deficits and WT mice, similar to the SAM 923 and Pyk2−/− experiments. […] The brains of these mice are analyzed for synapse density, gliosis and Aβ. […]
Mice were handled for five minutes a day for five days prior to experiment to reduce anxiety. […] Object choice was pseudorandom; the object was recorded as the familiar object for each animal. The mouse was then replaced in cage's center, not facing either object, and a total timer counted up to ten minutes. The mice were allowed to explore the object and the time it took to accumulate thirty seconds of total orofacial object exploration was recorded. […]

Chain of Pyk2 (Q14289 whole entry, species assumed): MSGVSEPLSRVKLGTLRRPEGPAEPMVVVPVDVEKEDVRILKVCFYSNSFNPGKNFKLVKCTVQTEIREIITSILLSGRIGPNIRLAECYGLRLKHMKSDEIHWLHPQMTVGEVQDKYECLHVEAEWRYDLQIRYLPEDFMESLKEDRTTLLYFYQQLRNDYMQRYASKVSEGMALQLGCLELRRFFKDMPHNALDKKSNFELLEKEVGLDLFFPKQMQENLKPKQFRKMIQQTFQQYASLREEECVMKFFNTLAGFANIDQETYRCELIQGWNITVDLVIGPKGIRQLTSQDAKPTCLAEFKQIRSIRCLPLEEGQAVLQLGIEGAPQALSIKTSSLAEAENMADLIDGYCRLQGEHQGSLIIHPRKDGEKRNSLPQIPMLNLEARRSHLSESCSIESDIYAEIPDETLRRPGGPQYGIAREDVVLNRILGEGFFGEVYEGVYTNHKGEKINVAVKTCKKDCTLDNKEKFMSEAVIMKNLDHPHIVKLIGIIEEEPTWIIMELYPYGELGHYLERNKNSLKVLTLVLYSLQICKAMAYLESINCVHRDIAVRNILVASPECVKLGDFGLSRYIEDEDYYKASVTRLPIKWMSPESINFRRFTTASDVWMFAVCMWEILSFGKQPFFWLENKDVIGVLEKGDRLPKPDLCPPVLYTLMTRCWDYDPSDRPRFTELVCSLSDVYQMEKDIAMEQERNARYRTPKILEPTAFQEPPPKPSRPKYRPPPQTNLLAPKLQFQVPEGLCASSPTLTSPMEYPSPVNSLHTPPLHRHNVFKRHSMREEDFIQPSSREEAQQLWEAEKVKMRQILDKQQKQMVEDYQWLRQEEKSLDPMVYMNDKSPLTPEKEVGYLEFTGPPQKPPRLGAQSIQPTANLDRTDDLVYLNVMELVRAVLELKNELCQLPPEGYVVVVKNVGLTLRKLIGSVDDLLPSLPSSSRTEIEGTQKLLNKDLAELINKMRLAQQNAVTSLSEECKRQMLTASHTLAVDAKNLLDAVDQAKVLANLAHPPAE

- Pyk2 inhibition in luciferase-based biochemical assay (Pyk2): confirm the respective specificities
- brain level above the Ki ([2]; 5 mg/kg, 90 min): 30 fold
- Kp at 90 min ([2]; mouse, brain and plasma, other: i.p. or p.o., single dose 5 mg/kg i.p. or p.o., 90 min, read-out: brain level as share of plasma level): ~0.3
- concentration at 90 min ([2]; mouse, brain, other: i.p. or p.o., single peripheral dose of 5 mg/kg i.p. or p.o., at 90 min): 450 ± 110 nM
- half-life ([2]; mouse, in vivo, other: i.p. or p.o., single dose 5 mg/kg i.p. or p.o.): 6 h
- Oral bioavailability ([2]; p.o. compared with i.p.): equal
Compound: CCOc1ccc2nc(SCc3nc(N)nc(N4CCOCC4)n3)sc2c1 [PF-719, 4-(((6-ethoxybenzo[d]thiazol-2-yl)thio)methyl)-6-morpholino-1,3,5-triazin-2-amine]
- Ki (Fyn): > 1000 nM
- GFP-Pyk2-induced spine loss [1]: partial rescue
- baseline Pyk2 activation and Aβo-induced signaling in cells (Pyk2 activation (p-Pyk2)): blocked baseline Pyk2 activation and Aβo-induced signaling
- learning and memory performance (APP/PS1 transgenic mice): significantly greater than Vehicle/untreated levels
